Measured values taken from US20160228565A1, “POLYAMIDE BASED PEPTID[…]” (New York University, priority 2014, published 2016).

Tested on: HSV-1 (strain SC16)
Assay: Virus yield reduction assay (plaque assay, Vero cell monolayers)
Assay type: cell-based
Procedure: African green monkey kidney cells (Vero) (ATCC CCL-81) were grown in Dulbecco's modified Eagle's medium (DMEM) supplemented with 10% fetal calf serum. HSV-1 (strain SC16), carrying a lacZ gene driven by the CMV IE-1 promoter to express β-galactosidase, was propagated on Vero cells monolayers.
For all experiments, peptides, dendrimers, and peptidodendrimers were dissolved in DMEM without serum and used at concentrations of 0, 5.5, 55, 280, and 550 nM. All experiments were conducted in triplicate. The percentage of infectivity inhibition was calculated by setting the number of plaques obtained in positive controls where no antiviral compounds were added to the cell monolayers to 0% inhibition.
Confluent Vero cell monolayers (12-well plates) were washed with phosphate-buffered saline (PBS) and infected with HSV-1 at multiplicity of infection (MOI) of 1 plaque-forming unit (pfu)/cell for 1 hour at 37° C. The virus inocula were mixed with the peptide/dendrimer/conjugate(s) to be tested, as described in Example 3 above. […] Plaques were stained with X-gal (5-bromo-4-chloro-3-indolyl-([…]-galactopyranoside) and microscopically counted. The mean plaque counts for each drug concentration were expressed as a percentage of the mean plaque count for the control virus. The number of plaques was plotted as a function of drug concentration. See FIG. 6. […]

Row | Sequence | inhibitory concentration (range in words) (peptide alone vs peptide conjugated to dendrimer) | antiviral activity relative to comparators (in words) (HSV-1 on Vero cells, FIGS. 6 and 18)
1 | FARLQFTYNHIQRHVRDMEGR (SEQ ID NO: 23) (HSV-1 envelope glycoprotein-derived peptide) [gB8, Residues 503-523 of envelope glycoprotein B] | micromolar | –
2 | AAHLIDALYAEFLGGRVLTT (SEQ ID NO: 53) (HSV-1 envelope glycoprotein-derived peptide) [PgH, Residues 493-512 of envelope glycoprotein H] | – | less active than gB8
